According to ChEMBL document CHEMBL1909607, “Synthesis and radioligand binding studies of bis-(8-isopropyl-isoquinolinium) derivatives as ligands for apamin-sensitive sites on cloned SK2 and SK3 channels” (Bioorg Med Chem Lett, 2011):

Legend:
Assay type in all cases: cell-based
[1] = biological target: T1, Small conductance calcium-activated potassium channel protein 2 (Homo sapiens, UniProt Q9H2S1); experiment: Inhibition of cloned SK2 channel expressed in human HEK293 cells at 10 uM
[2] = biological target: T2, Small conductance calcium-activated potassium channel protein 3 (Homo sapiens, UniProt Q9UGI6); experiment: Displacement of [125I]-apamin from cloned SK3 channel expressed in human HEK293 cells after 1 hr by liquid scintillation counting
T2 sequence (Q9UGI6 whole entry): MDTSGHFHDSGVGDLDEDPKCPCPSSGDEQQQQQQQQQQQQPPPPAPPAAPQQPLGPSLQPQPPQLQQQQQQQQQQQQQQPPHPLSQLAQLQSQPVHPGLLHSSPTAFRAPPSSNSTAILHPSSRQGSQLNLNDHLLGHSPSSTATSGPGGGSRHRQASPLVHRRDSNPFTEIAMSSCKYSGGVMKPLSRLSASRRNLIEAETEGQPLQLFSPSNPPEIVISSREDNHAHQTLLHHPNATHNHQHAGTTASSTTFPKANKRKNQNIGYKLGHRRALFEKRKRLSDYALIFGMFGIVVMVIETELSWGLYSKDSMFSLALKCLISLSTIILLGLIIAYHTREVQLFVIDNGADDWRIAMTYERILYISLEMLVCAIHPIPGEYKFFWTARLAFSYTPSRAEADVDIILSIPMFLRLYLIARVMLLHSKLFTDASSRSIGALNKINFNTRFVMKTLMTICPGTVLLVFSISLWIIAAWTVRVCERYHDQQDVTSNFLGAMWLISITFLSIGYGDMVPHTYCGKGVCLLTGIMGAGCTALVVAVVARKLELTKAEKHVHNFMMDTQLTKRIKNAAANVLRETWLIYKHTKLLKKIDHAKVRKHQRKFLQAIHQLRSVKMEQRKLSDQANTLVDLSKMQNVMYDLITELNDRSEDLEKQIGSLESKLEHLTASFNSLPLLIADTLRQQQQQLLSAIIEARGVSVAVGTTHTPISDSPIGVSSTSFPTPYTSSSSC

[3] = biological target: T1, Small conductance calcium-activated potassium channel protein 2; experiment: Displacement of [125I]-apamin from cloned SK2 channel expressed in human HEK293 cells after 1 hr by liquid scintillation counting
[4] = biological target: T2, Small conductance calcium-activated potassium channel protein 3; experiment: Inhibition of cloned human SK3 channel expressed in human HEK293 cells by patch clamp assay in the presence of 1 uM intracellular Ca2+
[5] = biological target: Small conductance calcium-activated potassium channel protein 2 (Rattus norvegicus, UniProt P70604); experiment: Inhibition of cloned rat SK2 channel expressed in human HEK293 cells by patch clamp assay in the presence of 1 uM intracellular Ca2+
Sequence of Small conductance calcium-activated potassium channel protein 2 (Rattus norvegicus, UniProt P70604) (P70604 whole entry): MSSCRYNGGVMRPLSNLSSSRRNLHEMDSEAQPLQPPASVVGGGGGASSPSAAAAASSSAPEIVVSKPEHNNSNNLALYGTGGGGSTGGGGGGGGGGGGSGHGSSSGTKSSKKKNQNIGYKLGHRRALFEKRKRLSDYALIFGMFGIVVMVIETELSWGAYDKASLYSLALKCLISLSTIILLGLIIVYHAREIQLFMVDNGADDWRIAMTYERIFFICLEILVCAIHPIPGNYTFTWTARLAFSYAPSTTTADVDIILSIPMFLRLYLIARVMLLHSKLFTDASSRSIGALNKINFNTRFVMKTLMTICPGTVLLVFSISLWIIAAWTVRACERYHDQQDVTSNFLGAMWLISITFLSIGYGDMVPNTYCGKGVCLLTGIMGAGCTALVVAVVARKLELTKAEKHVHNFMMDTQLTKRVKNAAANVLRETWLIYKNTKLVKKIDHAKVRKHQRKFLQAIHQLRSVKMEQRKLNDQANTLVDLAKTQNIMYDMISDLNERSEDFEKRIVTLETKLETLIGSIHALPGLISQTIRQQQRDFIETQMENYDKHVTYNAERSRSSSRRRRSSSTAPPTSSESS

T1 sequence (Q9H2S1 whole entry): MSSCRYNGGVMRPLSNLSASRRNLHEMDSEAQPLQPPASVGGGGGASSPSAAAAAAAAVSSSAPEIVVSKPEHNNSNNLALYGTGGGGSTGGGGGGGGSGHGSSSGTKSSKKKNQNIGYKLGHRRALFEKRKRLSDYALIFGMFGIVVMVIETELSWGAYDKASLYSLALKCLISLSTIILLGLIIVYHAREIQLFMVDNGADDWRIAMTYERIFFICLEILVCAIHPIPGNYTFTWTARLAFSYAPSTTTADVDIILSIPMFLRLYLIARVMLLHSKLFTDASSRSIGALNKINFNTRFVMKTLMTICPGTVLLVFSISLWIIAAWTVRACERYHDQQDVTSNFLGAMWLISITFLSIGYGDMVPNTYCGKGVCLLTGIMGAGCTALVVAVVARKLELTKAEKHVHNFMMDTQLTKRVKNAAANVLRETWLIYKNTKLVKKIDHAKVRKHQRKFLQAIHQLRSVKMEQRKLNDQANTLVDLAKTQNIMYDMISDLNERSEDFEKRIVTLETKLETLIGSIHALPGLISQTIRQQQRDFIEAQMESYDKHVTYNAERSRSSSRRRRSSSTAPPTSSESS

CC(C)c1cccc2c1C(Cc1ccc(CC3c4c(cccc4C(C)C)CCN3C)cc1)N(C)CC2 (racemic)
inhibition [1]: 41%

CC(C)c1cccc2cc[n+](C)c(Cc3ccc(Cc4c5c(C(C)C)cccc5cc[n+]4C)cc3)c12
Ki [2]: 1270 nM | Ki [3]: 397 nM

CC(C)c1cccc2cc[n+](C)c(CCCc3c4c(C(C)C)cccc4cc[n+]3C)c12
Ki [2]: 837 nM | Ki [3]: 593 nM

CC(C)c1cccc2cc[n+](C)c(CCCCCc3c4c(C(C)C)cccc4cc[n+]3C)c12
Ki [2]: 575 nM | Ki [3]: 878 nM

CC(C)c1cccc2c1C(CCCCCC1c3c(cccc3C(C)C)CCN1C)N(C)CC2 (racemic)
inhibition [1]: 41%

CC(C)c1cccc2c1C(Cc1cccc(CC3c4c(cccc4C(C)C)CCN3C)c1)N(C)CC2 (racemic)
inhibition [1]: 41%

CC(C)c1cccc2c1C(CCCCC1c3c(cccc3C(C)C)CCN1C)N(C)CC2 (racemic)
inhibition [1]: 41%

CC(C)c1cccc2cc[n+](C)c(CCCCc3c4c(C(C)C)cccc4cc[n+]3C)c12
Ki [2]: 214 nM | Ki [3]: 194 nM

CC(C)c1cccc2c1C(CCCC1c3c(cccc3C(C)C)CCN1C)N(C)CC2 (racemic)
inhibition [1]: 41%

CC(C)c1cccc2cc[n+](C)c(Cc3cccc(Cc4c5c(C(C)C)cccc5cc[n+]4C)c3)c12
IC50 [4]: 2970 nM | IC50 [5]: 1600 nM | Ki [2]: 46 nM | Ki [3]: 90 nM
